Patent US6878712B1, “Amides as inhibitors for pyruvate dehydrogenase” (AstraZeneca AB, priority 1999, dated 2005)
Where a name gives a salt, the structure may show the parent alone.

Assays:
[1] = cited from earlier work
PDH = settings: cited from earlier work

Work on `C[C@@](O)(C(=O)N1CCC(C(=O)c2ccc(F)cc2)CC1)C(F)(F)F` yielded a melting point of 78 to 79 °C.

`C[C@@H]1CN(C(=O)[C@@](C)(O)C(F)(F)F)[C@@H](C)CN1S(=O)(=O)c1ccc(C#N)cc1` showed a melting point of 186 to 187 °C.

With `CCS(=O)(=O)N1C[C@H](C)N(C(=O)[C@@](C)(O)C(F)(F)F)C[C@H]1C` the melting point was 142 to 144 °C.

`C[C@@H]1CN(C(=O)[C@@](C)(O)C(F)(F)F)[C@@H](C)CN1S(=O)(=O)c1cccs1` gave a melting point of 116 to 117 °C.

In the case of `C[C@@H]1CN(C(=O)[C@@](C)(O)C(F)(F)F)[C@@H](C)CN1S(=O)(=O)c1ccc(C(=O)O)cc1`, the melting point is reported as 194 to 196 °C.

For `C[C@@H]1CN(C(=O)[C@@](C)(O)C(F)(F)F)[C@@H](C)CN1S(=O)(=O)c1ccc(C(=O)N(C)C)cc1`, the melting point was 86 to 87 °C.

`C[C@@H]1CN(C(=O)[C@@](C)(O)C(F)(F)F)[C@@H](C)CN1S(=O)(=O)c1ccc(F)cc1` gave a melting point of 174 to 175 °C.

In the case of `C[C@@H]1CN(C(=O)[C@@](C)(O)C(F)(F)F)[C@@H](C)CN1C(=O)c1ccc(F)cc1`, the melting point is reported as 177 to 178 °C.

`C[C@@](O)(C(=O)N1CCC(N)CC1)C(F)(F)F` (as salt: hydrochloride) showed a melting point of 245 to 246 °C.

In the case of `O=C(O)C(Cl)Cl` [DCA, dichloroacetic acid], the plasma glucose ([1]; after repeated administration) is listed as “significant decrease in plasma glucose”, the glycaemia ([1]; in vivo) is listed as “reducing glycaemia” and the “activity of PDH” value (PDH; after acute administration in animals) is listed as “increases the activity of PDH”. The “proportion of PDH in its active form” value (PDH; single administration, 150 mg/kg, intraperitoneally) was “increased the proportion of PDH in its active form”.
